{
  "source": "paper PMC1784591",
  "about": "(Infectious Diseases in Obstetrics and Gynecology, 2004)",
  "key": {"[1]": {"test_system": "term human placenta (single cotyledon)", "experiment": "ex vivo human placental perfusion, closed-closed recirculation system", "type": "in vitro ADME", "details": "system closed for 1-5 h; peak and trough concentrations"}, "[2]": {"details": "cited from earlier work"}, "[3]": {"details": "cited from earlier work", "remark": "listed apart in the source"}, "[4]": {"details": "cited from earlier work", "remark": "listed apart in the source"}, "[5]": {"test_system": "term human placenta (single cotyledon)", "experiment": "ex vivo human placental perfusion, single cotyledon, open system", "details": "range over placentas"}},
  "note": "Structures can show the parent of a compound that is named as a salt.",
  "data": [
    {"smiles": "CN[C@H](CC(C)C)C(=O)N[C@H]1C(=O)N[C@@H](CC(N)=O)C(=O)N[C@H]2C(=O)N[C@H]3C(=O)N[C@H](C(=O)N[C@H](C(=O)O)c4cc(O)cc(O)c4-c4cc3ccc4O)[C@H](O)c3ccc(c(Cl)c3)Oc3cc2cc(c3O[C@@H]2O[C@H](CO)[C@@H](O)[C@H](O)[C@H]2O[C@H]2C[C@](C)(N)[C@H](O)[C@H](C)O2)Oc2ccc(cc2Cl)[C@H]1O", "note": "[vancomycin, vancomycin hydrochloride]", "values": [
      {"measurement": "accumulation of vancomycin (fetal)", "setting": "[1]", "value": "No accumulation"},
      {"measurement": "fraction bound to plasma proteins (unavailable for transfer)", "setting": "[2]", "value": "a third to a half"},
      {"measurement": "bound to plasma proteins", "setting": "[2]; non-pregnant subjects", "value": "30-55%"},
      {"measurement": "excreted by glomerular filtration", "setting": "[3]; non-pregnant subjects", "value": 90, "unit": "%"},
      {"measurement": "CSF levels", "setting": "[3]; without meningitis", "value": "undetectable"},
      {"measurement": "heparin concentration above which vancomycin precipitates when mixed", "setting": "[4]", "value": "more than 1 unit/ml"},
      {"measurement": "Clearance index, mean peak range", "setting": "[5]; peak concentrations", "value": "0.000-0.080"},
      {"measurement": "Clearance index, mean trough range", "setting": "[5]; trough concentrations", "value": "0.00-0.17"}
    ]}
  ]
}
